Experimental data as given in patent US6251885A, “Cytotrienins, process for preparing the same and anti-tumor agent” (The Institute of Physical and Chemical Research, priority 1996, dated 2001).
≈ marks a conversion by molar mass, not a printed value.

Columns and labels:
Pseudomonas aeruginosa = assay: Antimicrobial activity, agar dilution method; type: cell-based; details: bouillon medium, 37° C., 1 day
Staphylococcus aureus = assay: Antimicrobial activity, agar dilution method; type: cell-based; details: bouillon medium, 37° C., 1 day
v-src^ts -NRK cell [1] = assay: Inhibition of v-src^ts-NRK cell cycle (progress of S phase), flow cytometry; further: key: +: weakly inhibits the progress of S; + +: inhibits the progress of S phase; + + +: strongly inhibits the progress of S phase; type: cell-based, rat; details: downshift 39° C. to 32° C., 18 hours
Protocol: Inhibitory activity for cell cycle of cytotrienins I, II, III and IV.
Generally cell divides and proliferates in accordance with a cell cycle including a series of phases such as M phase, G1 phase, S phase and G2 phase. If something happens in the control mechanism of cell cycle, homeostasis breaks and possibility of suffering from cancer or immune disease would increase.
When v--src^ts -NRK cell is cultured at non-permissive temperature (39° C.), the cell cycle stops at G0/G1 phase and if the temperature is downshifted to permissive temperature (32° C.), the cell advances to S phase and then repeats the proliferation. A series of diluted cytotrienin I, II, III and IV were added simlutaneously with the downshift and, after 18 hours, the advancement of cell cycle to S phase was analyzed by flow cytometry.

v-src^ts -NRK cell [2] = assay: Activity to revert v-src^ts-NRK cell to normal morphology; type: cell-based, rat; details: 32° C., 18 hours; further: key: +: weakly induce normal morphology; + +: induce normal morphology; + + +: highly induce normal morphology
Protocol: Activity of cytotrienins I, II, III and IV to revert v-src^ts -NRK cell (rat renal cell infected with temperature-sensitive Rous sarcoma virus) to normal morphology.
Many oncogenes encode tyrosine kinase. Among them, v-src is believed to encode non-receptor type tyrosine kinase to induce the cell to transformed morphology.
V-src^ts -NRK cell is typically cultured on Eagle's MEM medium containing 10% of bovine serum at 32° C. in a culture chamber which is saturated with 5% of carbon dioxide and steam. At the permissive temperature (32° C.), a series of diluted cytotrienin I, II, III and IV were added. After 18 hours, inducibility to normal morphology was analyzed.

Candida albicans = assay: Antimicrobial activity, agar dilution method; type: cell-based; details: Sabouraud's medium, 28° C., 2 days
HL-60 = assay: Inhibition of proliferation of cancer cells (MTT), HL-60; type: cell-based; details: HL-60 (human acute promyelogenic leukemia cells), 17 hours
Protocol: (§1) Inhibitory activity for proliferation of cancer cells of cytotrienins I, II, III and IV.
(§2) Human leukocyte cells K562 and HL-60 were incubated on PRM 1640 medium (comprising 10% of bovine serum) in a culture chamber saturated with 5% carbon dioxide and steam. To the medium was added a series of diluted cytotrienin I, II, III and IV. After 17 hours, MTT reagent was added and growth was measured.
HL-60: Human acute promyelogenic leukemia cells

Pyricularia oryzae = assay: microbe, parasite or virus in culture; type: cell-based; details: for minimum inhibitory concentration (MIC): Sabouraud's medium, 28° C., 2 days
Chlorella vulgaris = assay: Antimicrobial activity, agar dilution method; type: cell-based
Escherichia coli BE1186 = assay: Antimicrobial activity, agar dilution method; type: cell-based; details: bouillon medium, 37° C., 1 day
Protocol: Antimicrobial activity of cytotrienins I, II, III and IV
Cytotrienins I, II, III and IV were assayed by the agar dilution method in bouillon medium (examined microorganism; bacteria, 37° C., 1 day) and Sabouraud's medium (examined microorganism: fungus, 28° C., 2 days).

K-562 = assay: Inhibition of proliferation of cancer cells (MTT), K-562; type: cell-based; details: 17 hours; for Inhibitory effect on proliferation, IC50 value (concentration to inhibit 50% of proliferation): K-562 (human chronic myelogenic leukemia cells)
Protocol: as §1, §2
K562: Human chronic myelogenic leukemia cells

[3] = 24 h, read-out: minimum inhibitory concentration (MIC)
[4] = 48 h, read-out: minimum inhibitory concentration (MIC)

With `COC1C=CC=CC=CCC(OC(=O)C2(NC(=O)C3CCCCC3)CC2)C(C)C(O)C(C)=CCCC2=CC(=O)C=C(NC(=O)C1)C2=O` (centres unmarked) [Cytotrienin IV, cytotrienin IV] the “minimum inhibitory concentration (MIC)” value (Pseudomonas aeruginosa) was over 100 mg/L, the “minimum inhibitory concentration (MIC)” value (Staphylococcus aureus) was over 100 mg/L and the “Inhibition effect on v-src^ts -NRK cell cycle” value (“Inhibition effect on v-src^ts” for short) (v-src^ts -NRK cell [1]; 0.03 μg/ml) was “+ +”. For the same compound, the “Inhibition effect on v-src^ts” value (v-src^ts -NRK cell [1]; 0.1 μg/ml) was “+ + +”, the “Inhibition effect on v-src^ts” value (v-src^ts -NRK cell [1]; 0.3 μg/ml) was “+ + +” and the “Inhibition effect on v-src^ts” value (v-src^ts -NRK cell [1]; 1 μg/ml) was “+ + +”. For the same compound, the “Inhibition effect on v-src^ts” value (v-src^ts -NRK cell [1]; 3 μg/ml) was “+ + +”, the “reversion activity to induce v-src^ts -NRK cell to normal morphology” value (“reversion activity … to normal morphology” for short) (v-src^ts -NRK cell [2]; 0.1 μg/ml) was “+ +” and the “reversion activity … to normal morphology” value (v-src^ts -NRK cell [2]; 1 μg/ml) was “+ + +”. The “reversion activity … to normal morphology” value (v-src^ts -NRK cell [2]; 3 μg/ml) was “+ + +”, the “reversion activity … to normal morphology” value (v-src^ts -NRK cell [2]; 10 μg/ml) was “+ + +” and the “minimum inhibitory concentration (MIC)” value (Candida albicans) was over 100 mg/L. For the same compound, the “Inhibitory effect on proliferation, IC50 value (concentration to inhibit 50% of proliferation)” value (HL-60) was 0.001 mg/L, the “minimum inhibitory concentration (MIC)” value (Pyricularia oryzae) was 12.5 mg/L (≈ 19.3 µM) and the “minimum inhibitory concentration (MIC)” value (Chlorella vulgaris) was over 100 mg/L. The “minimum inhibitory concentration (MIC)” value (Escherichia coli BE1186) was over 100 mg/L and the “Inhibitory effect on proliferation, IC50 value (concentration to inhibit 50% of proliferation)” value (K-562) was 0.001 mg/L.

For `COC1C=CC=CC=CCC(OC(=O)C2(NC(=O)C3CCCCC3)CC2)C(C)C(O)C(C)=CCCc2cc(O)cc(c2O)NC(=O)C1` (centres unmarked) [Cytotrienin II, cytotrienin II], the “minimum inhibitory concentration (MIC)” value (Pseudomonas aeruginosa) was over 100 mg/L, the “minimum inhibitory concentration (MIC)” value (Staphylococcus aureus) was over 100 mg/L and the “Inhibition effect on v-src^ts” value (v-src^ts -NRK cell [1]; 0.03 μg/ml) was “+”. For the same compound, the “Inhibition effect on v-src^ts” value (v-src^ts -NRK cell [1]; 0.1 μg/ml) was “+ +”, the “Inhibition effect on v-src^ts” value (v-src^ts -NRK cell [1]; 0.3 μg/ml) was “+ + +” and the “Inhibition effect on v-src^ts” value (v-src^ts -NRK cell [1]; 1 μg/ml) was “+ + +”. For the same compound, the “Inhibition effect on v-src^ts” value (v-src^ts -NRK cell [1]; 3 μg/ml) was “+ + +”, the “reversion activity … to normal morphology” value (v-src^ts -NRK cell [2]; 0.1 μg/ml) was “+” and the “reversion activity … to normal morphology” value (v-src^ts -NRK cell [2]; 0.3 μg/ml) was “+”. The “reversion activity … to normal morphology” value (v-src^ts -NRK cell [2]; 1 μg/ml) was “+ + +”, the “reversion activity … to normal morphology” value (v-src^ts -NRK cell [2]; 3 μg/ml) was “+ + +” and the “reversion activity … to normal morphology” value (v-src^ts -NRK cell [2]; 10 μg/ml) was “+ + +”. For the same compound, the “minimum inhibitory concentration (MIC)” value (Candida albicans) was over 100 mg/L, the “Inhibitory effect on proliferation, IC50 value (concentration to inhibit 50% of proliferation)” value (HL-60) was 0.005 mg/L and the “minimum inhibitory concentration (MIC)” value (Pyricularia oryzae) was 12.5 mg/L (≈ 19.2 µM). For the same compound, the “minimum inhibitory concentration (MIC)” value (Chlorella vulgaris) was over 100 mg/L, the “minimum inhibitory concentration (MIC)” value (Escherichia coli BE1186) was over 100 mg/L and the “Inhibitory effect on proliferation, IC50 value (concentration to inhibit 50% of proliferation)” value (K-562) was 0.005 mg/L.

`COC1C=CC=CC=CCC(OC(=O)C2(NC(=O)C3=CCCCC3)CC2)C(C)C(O)C(C)=CCCc2cc(O)cc(c2O)NC(=O)C1` (centres unmarked) [Cytotrienin I, cytotrienin I] was tested, and the MIC (Pseudomonas aeruginosa; [3]) was over 100 mg/L, the MIC (Staphylococcus aureus; [3]) was over 100 mg/L and the “Inhibition effect on v-src^ts” value (v-src^ts -NRK cell [1]; 0.03 μg/ml) was “+”. The “Inhibition effect on v-src^ts” value (v-src^ts -NRK cell [1]; 0.1 μg/ml) was “+ +”, the “Inhibition effect on v-src^ts” value (v-src^ts -NRK cell [1]; 0.3 μg/ml) was “+ + +” and the “Inhibition effect on v-src^ts” value (v-src^ts -NRK cell [1]; 1 μg/ml) was “+ + +”. For the same compound, the “Inhibition effect on v-src^ts” value (v-src^ts -NRK cell [1]; 3 μg/ml) was “+ + +”, the “reversion activity … to normal morphology” value (v-src^ts -NRK cell [2]; 0.1 μg/ml) was “+” and the “reversion activity … to normal morphology” value (v-src^ts -NRK cell [2]; 0.3 μg/ml) was “+ +”. For the same compound, the “reversion activity … to normal morphology” value (v-src^ts -NRK cell [2]; 1 μg/ml) was “+ + +”, the “reversion activity … to normal morphology” value (v-src^ts -NRK cell [2]; 3 μg/ml) was “+ + +” and the “reversion activity … to normal morphology” value (v-src^ts -NRK cell [2]; 10 μg/ml) was “+ + +”. For the same compound, the MIC (Candida albicans; [4]) was over 100 mg/L, the IC50 (HL-60; read-out: Inhibitory effect on proliferation, IC50 value (concentration to inhibit 50% of proliferation)) was 0.005 mg/L (≈ 0.00771 µM) and the MIC (Pyricularia oryzae; [4]) was 12.5 mg/L (≈ 19.3 µM). It also gave an MIC (Chlorella vulgaris; read-out: minimum inhibitory concentration (MIC)) of over 100 mg/L, an MIC (Escherichia coli BE1186; [3]) of over 100 mg/L and an IC50 (K-562; K562, K-562 (human chronic myelogenic leukemia cells), read-out: Inhibitory effect on proliferation, IC50 value (concentration to inhibit 50% of proliferation)) of 0.02 mg/L (≈ 0.0308 µM).

For `COC1C=CC=CC=CCC(OC(=O)C2(NC(=O)C3=CCCCC3)CC2)C(C)C(O)C(C)=CCCC2=CC(=O)C=C(NC(=O)C1)C2=O` (centres unmarked) [Cytotrienin III, cytotrienin III], the “minimum inhibitory concentration (MIC)” value (Pseudomonas aeruginosa) was over 100 mg/L, the “minimum inhibitory concentration (MIC)” value (Staphylococcus aureus) was over 100 mg/L and the “Inhibition effect on v-src^ts” value (v-src^ts -NRK cell [1]; 0.03 μg/ml) was “+ +”. The “Inhibition effect on v-src^ts” value (v-src^ts -NRK cell [1]; 0.1 μg/ml) was “+ + +”, the “Inhibition effect on v-src^ts” value (v-src^ts -NRK cell [1]; 0.3 μg/ml) was “+ + +” and the “Inhibition effect on v-src^ts” value (v-src^ts -NRK cell [1]; 1 μg/ml) was “+ + +”. For the same compound, the “Inhibition effect on v-src^ts” value (v-src^ts -NRK cell [1]; 3 μg/ml) was “+ + +”, the “reversion activity … to normal morphology” value (v-src^ts -NRK cell [2]; 0.1 μg/ml) was “+ +” and the “reversion activity … to normal morphology” value (v-src^ts -NRK cell [2]; 0.3 μg/ml) was “+ + +”. For the same compound, the “reversion activity … to normal morphology” value (v-src^ts -NRK cell [2]; 1 μg/ml) was “+ + +”, the “reversion activity … to normal morphology” value (v-src^ts -NRK cell [2]; 3 μg/ml) was “+ + +” and the “reversion activity … to normal morphology” value (v-src^ts -NRK cell [2]; 10 μg/ml) was “+ + +”. The “minimum inhibitory concentration (MIC)” value (Candida albicans) was over 100 mg/L, the “Inhibitory effect on proliferation, IC50 value (concentration to inhibit 50% of proliferation)” value (HL-60) was 0.001 mg/L and the “minimum inhibitory concentration (MIC)” value (Pyricularia oryzae) was 12.5 mg/L (≈ 19.3 µM). The “minimum inhibitory concentration (MIC)” value (Chlorella vulgaris) was over 100 mg/L, the “minimum inhibitory concentration (MIC)” value (Escherichia coli BE1186) was over 100 mg/L and the “Inhibitory effect on proliferation, IC50 value (concentration to inhibit 50% of proliferation)” value (K-562) was 0.005 mg/L.
